From US20260234630A1, “Methods for Treating Multiple Myeloma” (Celgene Corporation, priority 2022, published 2026)

Test system: UHRF1 mRNA
Assay: qRT-PCR of UHRF1 gene expression in MM cells
Assay type: cell-based
Experimental: FIG. 1A-1F. Down regulation of UHRF1 transcription by IMiDs correlates with drug sensitivity of multiple myeloma. (1A) Volcano plot of protein expression changes determined by mass spectrometry in H929 cells at 24 hr of treatment with CC-220 (0.1 μM) or DMSO control. X axis, Log2fold change (FC); Y axis, significance,-log 10 [p-value]. […] (1B) Volcano plot of gene expression changes determined by Affymetrix microarray in H929 cells treated with POM (1 μM) or DMSO for 24 hr. X axis, Log2fold change (FC); Y axis, significance,-log 10 [p-value], n=2 technical replicates). […] (1C) Western blot analysis protein expression of UHRF1, Ikaros, Aiolos and ZFP91 in H929 cells treated with 1 μM POM for indicated time. (1D) qRT-PCR analysis of UHRF1 gene expression levels in cells as in (1C). Error bars represent the SEM from duplicate measurements. (1E) Western blot analysis protein expression of UHRF1 and indicated proteins in MM cells treated with DMSO (−) or 1 μM POM (+) for 3 days. GAPDH serves as a loading control. (1F) Thymidine incorporation of various MM cell lines treated with indicated dose of POM for 3 days. Error bars represent the SEM from technical replicates.
FIG. 2A-2E. UHRF1 expression is positively regulated by Ikaros and Aiolos in IMiDs sensitive MM cells. (2A) Western blot analysis protein expression of UHRF1, Ikaros, Aiolos, ZFP91 and Cereblon expression in control [shLuciferase (shLuc)] and cereblon knockdown (shCRBN) H929 cells treated with DMSO and 1 μM POM for 3 days. GAPDH, loading control. Arrow head, UHRF1. (2B) qRT-PCR analysis of UHRF1 gene expression levels in cells as in (2A). Data was normalized to ACTB. Error bars represent the SEM of technical duplicates. *** P<0.001 (Two-tailed unpaired Student's t-test). (2C) Western blot analysis protein expression of UHRF1, Ikaros and Aiolos in stably transduced H929 cells after Dox induction (0, 10, 50 or 100 ng/ml) for 3 days of non-target shRNA (shNT) or shRNAs targeting Ikaros (shIKZF1) or Aiolos (shIKZF3). (2D) qRT-PCR analysis of UHRF1 gene expression levels in cells as in (2C). Shown are cells induced with Dox (50 ng/ml) for 3 days. Data was normalized to GAPDH. Error bars represent the SEM of technical duplicates. *P<0.05, ** P<0.01, *** P<0.001, **** P<0.0001 (Two-tailed unpaired Student's t-test). (2E) ChIP-qPCR analysis of the occupancy Aiolos (upper panel) or H3K27ac (lower panel) occupancy at transcription star site (TSS), gene body (+7 kb) and gene end (GE) of UHRF1 gene in H929, MM1.S or RPMI 8226 cells treated with DMSO or 1 μM POM for 24 hr. ChIP with control rabbit IgG (IgG) serves as a negative control. Error bars represent the SEM of technical triplicates. * P<0.05, ** P<0.01, **** P<0.0001 (Two-tailed unpaired Student's t-test).
FIG. 6A-6D. […] (6A) Immunocytochemistry assay of UHRF1 in H929 cells treated with DMSO or 1 μM POM for 48 hrs. (6B) qRT-PCR analysis of UHRF1 gene expression levels in indicated MM cells treated with indicated doses of POM for 3 days. Data was normalized to ACTB. Error bars represent the SEM from duplicate measurements. * P<0.05, ** P<0.01, *** P<0.001, **** P<0.0001 (Two-tailed Student's t-test). […]
Total RNA was extracted by RNeasy Mini Kit (Qiagen) and reverse transcribed by iScrip cDNA Synthesis Kit (Bio-rad). Quantitative real-time PCR (qPCR) was conducted on a VillA 7 System using the Power SYBR Green PCR Master Mix (Applied Biosystems). Gene expression values were calculated by normalization to Actb using the comparative CT method.

How did the “UHRF1 mRNA” value (H929, MM1.S and U266 cells, indicated doses of POM, 3 days) turn out when Nc1cccc2c1C(=O)N(C1CCC(=O)NC1=O)C2=O (stereo not shown) [POM, pomalidomide] was run?
The value was “dose dependent downregulation”.

And the “time to profound reduction of UHRF1 mRNA level” value (H929 cells, POM 1 μM, time course)?
The value was “up to 24 hours”.

What about the UHRF1 gene expression (drug sensitive MM (FIG. 6 title)) of the same molecule?
Its UHRF1 gene expression is “downregulated”.

And the “downregulation of UHRF1 mRNA by POM under cereblon knockdown” value (shCRBN vs shLuc H929 cells, 1 μM POM, 3 days)?
The value was “rescue”.
